Assay [1] deals with T1, PPARG/RXRA LBD heterodimer (Homo sapiens, UniProt P37231).
T1 construct: His-TEV-Q203-Y477; Uniprot ID P37231-2; made in house; host or cells: E. coli
The assay is described as follows: PPARγ-NCOR1 recruitment assay (TR-FRET, biotinylated NCOR1 ID2 peptide). Format: biochemical. To be noted: 80 nM Rosiglitazone, 3 hours, read-out: PPARG-NCOR recruitment assay EC50. On the procedure: PPARγ-NCOR1 Recruitment Assay:
Compound potency (EC50) and maximal extent of NCOR1 recruitment to PPARG were assessed a TR-FRET binding assay measuring association of a biotinylated NCOR1 ID2 peptide (Biotin-[…]-amide) to PPARG/RXRA LBD heterodimer. Specifically, a 20 microliters of TR-FRET master mix consisting of 2 nM WT PPARG LBD (E. coli expressed, His-TEV-Q203-Y477; Uniprot ID P37231-2), 2 nM WT RXRA LBD or mutant S427F RXRA LBD (E. coli expressed, Flag-TEV-E228-T462; […]. Mixtures were incubated for 3 hours and read in an EnVision plate reader (Perkin Elmer) with Ex/Em 615/665. To determine the potency (EC50) and extent of NCOR1 recruitment, TR-FRET ratios were normalized to the average ratio of DMSO control wells (0%) and to the average maximum ratio for positive control compound (T0070907 (2-chloro-5-nitro-N-4-pyridinyl-benzamide); defined as 100%) in CDD Vault and analyzed using the Levenberg-Marquardt algorithm.
T1 sequence (O75376 2251-2273 partner, one chain of several): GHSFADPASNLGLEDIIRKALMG

Assay [2] concerns the target T2, PPARG/RXRA LBD heterodimer (Homo sapiens, UniProt P37231).
T2 construct: His-TEV-Q203-Y477; Uniprot ID P37231-2; made in house; host or cells: E. coli
T2 sequence (P37231 203-477 isoform P37231-2): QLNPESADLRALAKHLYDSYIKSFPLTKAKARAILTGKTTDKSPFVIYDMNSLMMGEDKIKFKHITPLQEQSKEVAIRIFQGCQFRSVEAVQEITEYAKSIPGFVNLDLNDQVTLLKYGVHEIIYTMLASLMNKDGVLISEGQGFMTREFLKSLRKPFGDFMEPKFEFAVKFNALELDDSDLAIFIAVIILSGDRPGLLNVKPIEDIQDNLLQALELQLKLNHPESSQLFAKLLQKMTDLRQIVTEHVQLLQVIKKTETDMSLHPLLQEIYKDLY
T2 sequence (P19793 228-462 partner limits assumed): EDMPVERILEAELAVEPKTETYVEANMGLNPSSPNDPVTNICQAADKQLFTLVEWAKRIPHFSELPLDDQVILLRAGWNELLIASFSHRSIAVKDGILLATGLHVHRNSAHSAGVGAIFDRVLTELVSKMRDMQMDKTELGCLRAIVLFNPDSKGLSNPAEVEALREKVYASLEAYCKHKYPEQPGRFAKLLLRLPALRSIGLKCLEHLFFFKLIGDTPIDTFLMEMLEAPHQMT
The assay is described as follows: PPARγ-MED1 blockade assay (TR-FRET, biotinylated MED1 LxxLL peptide). The format is biochemical. To be noted: WT PPARG LBD/WT RXRA LBD, 80 nM Rosiglitazone, 3 hours. How it is done:
PPARγ-MED1 Blockade Assay:
Compound potency (IC50) and maximal extent of MED1 repulsion to PPARG were assessed a TR-FRET binding assay measuring association of a biotinylated MED1 LxxLL peptide (Biotin-[…]-amide) to PPARG/RXRA LBD heterodimer. Specifically, a 20 microliters of TR-FRET master mix consisting of 2 nM WT PPARG LBD (E. coli expressed, His-TEV-Q203-Y477; Uniprot ID P37231-2), 2 nM WT RXRA LBD (E. coli expressed, Flag-TEV-E228-T462; […]. Mixtures were incubated for 3 hours and read in an EnVision plate reader (Perkin Elmer) with Ex/Em 615/665. To determine the potency (IC50) and extent of MED1 repulsion, TR-FRET ratios were normalized to the average ratio of DMSO control wells (0%) and to the average minimum ratio for positive control compound (GW9662 (2-chloro-5-nitrobenzanilide); defined as 100%) in CDD Vault and analyzed using the Levenberg-Marquardt algorithm.

Assay [3] concerns ANGPTL4, a PPARG target gene, in HT1197 (RXRA S427F mutation) cells. The assay is described as follows: Bladder cancer pharmacodynamic assay, HT1197 cell assay (qPCR of ANGPTL4). Format: cell-based. As to conditions: Homo sapiens, 24 hours, 100 nM compound, relative to DMSO control. On the procedure:
Bladder Cancer Pharmacodynamic Assay
5637 (PPARG amplified) and HT1197 (RXRA S427F mutation) cells were used for assessment of modulation of PPARG target genes using quantitative PCR. Cells were treated for 24 hours with PPARG inverse agonists prior to analysis of FABP4 (IDT, Cat: Hs.PT 58.20106818) and ANGPTL4 (IDT, Cat: Hs.PT 58.25480012) expression, with expression of the housekeeping gene TBP (IDT, Cat: Hs.PT 58v.39858774) used to normalize expression across samples. Quantitative PCR was performed using an ABI QuantStudio 7 Flex Reaction system. Data were analyzed and reported relative to DMSO control using the comparative Ct method (ΔΔCt).

The record followed here is patent US20240166624A1, “PPARG INVERSE AGONISTS AND USES THEREOF” (Flare Therapeutics Inc., priority 2021, published 2024).

As usually defined, the EC50 is the midpoint of the concentration-response curve. The term inhibition denotes the change of the read-out against control, counted positive when it falls. A higher inhibition goes with a response far below the control. As to `N#Cc1ccc(Cl)c(-c2cc(=O)c3c(F)c(-n4cccn4)c(F)cc3[nH]2)c1` [Example 25, 4-chloro-3-(5,7-difluoro-4-oxo-6-(1H-pyrazol-1-yl)-1,4-dihydroquinolin-2-yl)benzonitrile], the EC50 in assay [1] and in assay [2] was 1000 to 10000 nM in each case. The inhibition at 0.1 µM in assay [3] worked out at 22%.
For `CNC(=O)c1c(F)cc2[nH]c(-c3cc(C#N)ccc3Cl)cc(=O)c2c1F` [Example 26, 2-(2-chloro-5-cyanophenyl)-5,7-difluoro-N-methyl-4-oxo-1,4-dihydroquinoline-6-carboxamide], the values for the concentration giving a half-maximal response (EC50) in assay [1] and in assay [2] were greater than 10000 nM and 1000 to 10000 nM, respectively. This compound displayed an inhibition at 0.1 µM in assay [3] of 21%.
The like results for `N#Cc1ccc(Cl)c(-c2cc(=O)c3c(F)c(N4CCCC4=O)c(F)cc3[nH]2)c1` [Example 27, 4-chloro-3-(5,7-difluoro-4-oxo-6-(2-oxopyrrolidin-1-yl)-1,4-dihydroquinolin-2-yl)benzonitrile] were, in that order, 1000 to 10000 nM, 1000 to 10000 nM and 47%.
In the same order, the values of `Cc1c(F)cc(F)c2c(=O)cc(-c3cc(C#N)ccc3Cl)[nH]c12` [Example 28, 4-chloro-3-(5,7-difluoro-8-methyl-4-oxo-1,4-dihydroquinolin-2-yl)benzonitrile] are greater than 10000 nM, 100 to 1000 nM and 0%.
In the same order, the values of `N#Cc1ccc(Cl)c(-c2cc(=O)c3c(F)c(-n4ccnc4)c(F)cc3[nH]2)c1` [Example 29, 4-chloro-3-(5,7-difluoro-6-(1H-imidazol-1-yl)-4-oxo-1,4-dihydroquinolin-2-yl)benzonitrile] are 1000 to 10000 nM, 1000 to 10000 nM and 38%.
On to `Cc1cn(-c2c(F)cc3[nH]c(-c4cc(C#N)ccc4Cl)cc(=O)c3c2F)cn1` [Example 30, 4-chloro-3-(5,7-difluoro-6-(4-methyl-1H-imidazol-1-yl)-4-oxo-1,4-dihydroquinolin-2-yl)benzonitrile], for which the EC50 in assay [1] and in assay [2] was 100 to 1000 nM each time. Also, in assay [3], the inhibition at 0.1 µM was 39%.
As for `N#Cc1ccc(Cl)c(-c2cc(=O)c3ccc(Cl)cc3[nH]2)c1` [Example 31, 4-chloro-3-(7-chloro-4-oxo-1,4-dihydroquinolin-2-yl)benzonitrile], the 50% effective concentration (EC50) in assay [1] and in assay [2] was 100 to 1000 nM in each case. In assay [3], 0.1 µM produced 90% inhibition.
For the compound `N#Cc1ccc(Cl)c(-c2cc(=O)c3c(F)c(C(F)(F)F)c(F)cc3[nH]2)c1` [Example 32, 4-chloro-3-(5,7-difluoro-4-oxo-6-(trifluoromethyl)-1,4-dihydroquinolin-2-yl)benzonitrile], the EC50 in assay [1] and in assay [2] was 100 to 1000 nM throughout. This compound also yielded an inhibition at 0.1 µM in assay [3] of 31%.
Regarding `COc1c(F)cc2[nH]c(-c3cc(C#N)ccc3Cl)cc(=O)c2c1F` [Example 34, 4-chloro-3-(5,7-difluoro-6-methoxy-4-oxo-1,4-dihydroquinolin-2-yl)benzonitrile], the EC50 in assay [1] and in assay [2] was 100 to 1000 nM each time. The compound further registered an inhibition at 0.1 µM in assay [3] of 79%.
Consider `N#Cc1ccc(-c2c(F)cc3[nH]c(-c4cc(C#N)ccc4Cl)cc(=O)c3c2F)cc1` [Example 35, 4-chloro-3-(6-(4-cyanophenyl)-5,7-difluoro-4-oxo-1,4-dihydroquinolin-2-yl)benzonitrile], for which the EC50 in assay [1] and in assay [2] was 100 to 1000 nM throughout. For the same compound, the inhibition at 0.1 µM in assay [3] was 54%.
Turning to `N#Cc1ccc(Cl)c(-c2cc(=O)c3c(F)c(-c4ccc(C(F)F)cc4)c(F)cc3[nH]2)c1` [Example 36, 4-chloro-3-(6-(4-(difluoromethyl)phenyl)-5,7-difluoro-4-oxo-1,4-dihydroquinolin-2-yl)benzonitrile], the EC50 in assay [1] and in assay [2] was 10 to 100 nM each time. The inhibition at 0.1 µM in assay [3] was determined as 65%.
As to `N#Cc1ccc(Cl)c(-c2cc(=O)c3c(F)c(-c4ccc(C(F)(F)F)nc4)c(F)cc3[nH]2)c1` [Example 37, 4-chloro-3-(5,7-difluoro-4-oxo-6-(6-(trifluoromethyl)pyridin-3-yl)-1,4-dihydroquinolin-2-yl)benzonitrile], the EC50 in assay [1] and in assay [2] was 100 to 1000 nM each time. Besides, 0.1 µM produced 87% inhibition in assay [3].
Regarding `N#Cc1ccc(Cl)c(-c2cc(=O)c3c(F)c(-c4cnn(C(F)F)c4)c(F)cc3[nH]2)c1` [Example 38, 4-chloro-3-(6-(1-(difluoromethyl)-1H-pyrazol-4-yl)-5,7-difluoro-4-oxo-1,4-dihydroquinolin-2-yl)benzonitrile], the EC50 in assay [1] and in assay [2] was 100 to 1000 nM throughout. For the same compound, the inhibition at 0.1 µM in assay [3] is 80%.
For `CS(=O)(=O)c1ccc(-c2c(F)cc3[nH]c(-c4cc(C#N)ccc4Cl)cc(=O)c3c2F)cc1` [Example 39, 4-chloro-3-(5,7-difluoro-6-(4-(methylsulfonyl)phenyl)-4-oxo-1,4-dihydroquinolin-2-yl)benzonitrile], the EC50 in assay [1] and in assay [2] was 100 to 1000 nM throughout. Further, in assay [3], testing at 0.1 µM gave an inhibition of 33%.
In the case of `Cc1cc(-c2c(F)cc3[nH]c(-c4cc(C#N)ccc4Cl)cc(=O)c3c2F)ccn1` [Example 40, 4-chloro-3-(5,7-difluoro-6-(2-methylpyridin-4-yl)-4-oxo-1,4-dihydroquinolin-2-yl)benzonitrile], the EC50 in assay [1] and in assay [2] was 100 to 1000 nM each time. In assay [3], this compound displayed an inhibition at 0.1 µM of 72%.
`N#Cc1cccc(-c2c(F)cc3[nH]c(-c4cc(C#N)ccc4Cl)cc(=O)c3c2F)c1` [Example 41, 4-chloro-3-(6-(3-cyanophenyl)-5,7-difluoro-4-oxo-1,4-dihydroquinolin-2-yl)benzonitrile]: the EC50 in assay [1] is 10 to 100 nM; in assay [2], 100 to 1000 nM. Further, in assay [3], the inhibition at 0.1 µM was found to be 72%.
In the same order, the values of `Cc1ncc(-c2c(F)cc3[nH]c(-c4cc(C#N)ccc4Cl)cc(=O)c3c2F)cn1` [Example 42, 4-chloro-3-(5,7-difluoro-6-(2-methylpyrimidin-5-yl)-4-oxo-1,4-dihydroquinolin-2-yl)benzonitrile] are 100 to 1000 nM, 100 to 1000 nM and 74%.
On to `Cc1cc(-c2c(F)cc3[nH]c(-c4cc(C#N)ccc4Cl)cc(=O)c3c2F)cc(C)n1` [Example 43, 4-chloro-3-(6-(2,6-dimethylpyridin-4-yl)-5,7-difluoro-4-oxo-1,4-dihydroquinolin-2-yl)benzonitrile], for which the concentration for a half-maximal effect (EC50) in assay [1] and in assay [2] was 100 to 1000 nM each time. Further, the inhibition at 0.1 µM in assay [3] came out at 75%.
Take `Cn1cc(-c2c(F)cc3[nH]c(-c4cc(C#N)ccc4Cl)cc(=O)c3c2F)cn1` [Example 44, 4-chloro-3-(5,7-difluoro-6-(1-methyl-1H-pyrazol-4-yl)-4-oxo-1,4-dihydroquinolin-2-yl)benzonitrile]: the EC50 in assay [1] and in assay [2] was 100 to 1000 nM throughout. In assay [3], this compound yielded an inhibition at 0.1 µM of 75%.
